PubChem BioAssay (NCI)
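Dose response: 5 concentrations. Exposure: 48 h. Format: 96-well plates. Endpoint: linear interpolation; highest concentration if not reached. TGI: total growth inhibition.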

How the values were obtained:
Experiment in all cases: growth of human tumour cells (NCI), 48 h
OVCAR-8 ovarian = tested on: OVCAR-8 ovarian
SN12C renal = tested on: SN12C renal
SK-MEL-5 melanoma = tested on: SK-MEL-5 melanoma
SF-268 CNS = tested on: SF-268 CNS
COLO 205 colon = tested on: COLO 205 colon
PC-3 prostate = tested on: PC-3 prostate
A549 NSCLC = tested on: A549 NSCLC
HS 578T breast = tested on: HS 578T breast
TK-10 renal = tested on: TK-10 renal
MOLT-4 leukemia = tested on: MOLT-4 leukemia
A498 renal = tested on: A498 renal
NCI-H460 lung = tested on: NCI-H460 lung
MDA-N = tested on: MDA-N
NCI-H522 lung = tested on: NCI-H522 lung
SNB-19 CNS = tested on: SNB-19 CNS
SK-MEL-2 melanoma = tested on: SK-MEL-2 melanoma
NCI-H226 lung = tested on: NCI-H226 lung
SW-620 colon = tested on: SW-620 colon
OVCAR-3 ovarian = tested on: OVCAR-3 ovarian
RPMI-8226 leukemia = tested on: RPMI-8226 leukemia
SF-295 CNS = tested on: SF-295 CNS
UACC-62 melanoma = tested on: UACC-62 melanoma
BT-549 breast = tested on: BT-549 breast
MCF7 breast = tested on: MCF7 breast
NCI-H23 lung = tested on: NCI-H23 lung
LOX IMVI melanoma = tested on: LOX IMVI melanoma
HOP-92 NSCLC = tested on: HOP-92 NSCLC
HOP-62 NSCLC = tested on: HOP-62 NSCLC
HCT-116 colon = tested on: HCT-116 colon
M14 melanoma = tested on: M14 melanoma
SK-OV-3 ovarian = tested on: SK-OV-3 ovarian
SF-539 CNS = tested on: SF-539 CNS
RXF 393 renal = tested on: RXF 393 renal
HL-60(TB) leukemia = tested on: HL-60(TB) leukemia
K-562 leukemia = tested on: K-562 leukemia
SK-MEL-28 melanoma = tested on: SK-MEL-28 melanoma
OVCAR-5 ovarian = tested on: OVCAR-5 ovarian
HCT-15 colon = tested on: HCT-15 colon
OVCAR-4 ovarian = tested on: OVCAR-4 ovarian
786-0 renal = tested on: 786-0 renal
IGROV1 ovarian = tested on: IGROV1 ovarian
EKVX NSCLC = tested on: EKVX NSCLC
ACHN renal = tested on: ACHN renal
T-47D breast = tested on: T-47D breast
CCRF-CEM leukemia = tested on: CCRF-CEM leukemia
NCI/ADR-RES ovarian = tested on: NCI/ADR-RES ovarian
HT29 colon = tested on: HT29 colon
MDA-MB-231 breast = tested on: MDA-MB-231 breast
UO-31 renal = tested on: UO-31 renal
U251 CNS = tested on: U251 CNS
KM12 colon = tested on: KM12 colon
CAKI-1 renal = tested on: CAKI-1 renal
DU-145 prostate = tested on: DU-145 prostate
MDA-MB-435 = tested on: MDA-MB-435
UACC-257 melanoma = tested on: UACC-257 melanoma
HCC-2998 colon = tested on: HCC-2998 colon
MALME-3M melanoma = tested on: MALME-3M melanoma
SNB-75 CNS = tested on: SNB-75 CNS

Q: How did the TGI (OVCAR-8 ovarian) turn out when `CC1=C(C(=O)NNC(=O)c2ccccc2)CC(C(=O)NNC(=O)c2ccccc2)=C(C)N1` was run?
A: > 100 µM

Q: And the TGI (SN12C renal)?
A: > 100 µM

Q: And the TGI (SK-MEL-5 melanoma)?
A: > 100 µM

Q: What about the TGI (SF-268 CNS) of the same compound?
A: > 100 µM

Q: And the TGI (COLO 205 colon)?
A: > 100 µM

Q: What about the TGI (PC-3 prostate) of the same compound?
A: > 100 µM

Q: And the TGI (A549 NSCLC)?
A: > 100 µM

Q: What about the TGI (HS 578T breast) of the same compound?
A: > 100 µM

Q: What about the TGI (TK-10 renal) of the same compound?
A: > 100 µM

Q: And the TGI (MOLT-4 leukemia)?
A: > 100 µM

Q: And the TGI (A498 renal)?
A: > 100 µM

Q: And the TGI (NCI-H460 lung)?
A: > 100 µM

Q: And the TGI (MDA-N)?
A: > 100 µM

Q: And the TGI (NCI-H522 lung)?
A: > 100 µM

Q: And the TGI (SNB-19 CNS)?
A: > 100 µM

Q: What about the TGI (SK-MEL-2 melanoma) of the same compound?
A: > 100 µM

Q: And the TGI (NCI-H226 lung)?
A: > 100 µM

Q: What about the TGI (SW-620 colon) of the same compound?
A: > 100 µM

Q: What about the TGI (OVCAR-3 ovarian) of the same compound?
A: > 100 µM

Q: And the TGI (RPMI-8226 leukemia)?
A: > 100 µM

Q: What about the TGI (SF-295 CNS) of the same compound?
A: > 100 µM

Q: And the TGI (UACC-62 melanoma)?
A: > 100 µM

Q: And the TGI (BT-549 breast)?
A: > 100 µM

Q: And the TGI (MCF7 breast)?
A: > 100 µM

Q: And the TGI (NCI-H23 lung)?
A: > 100 µM

Q: And the TGI (LOX IMVI melanoma)?
A: > 100 µM

Q: And the TGI (HOP-92 NSCLC)?
A: > 100 µM

Q: And the TGI (HOP-62 NSCLC)?
A: > 100 µM

Q: And the TGI (HCT-116 colon)?
A: > 100 µM

Q: And the TGI (M14 melanoma)?
A: > 100 µM

Q: What about the TGI (SK-OV-3 ovarian) of the same compound?
A: > 100 µM

Q: What about the TGI (SF-539 CNS) of the same compound?
A: > 100 µM

Q: What about the TGI (RXF 393 renal) of the same compound?
A: > 100 µM

Q: What about the TGI (HL-60(TB) leukemia) of the same compound?
A: > 100 µM

Q: What about the TGI (K-562 leukemia) of the same compound?
A: > 100 µM

Q: And the TGI (SK-MEL-28 melanoma)?
A: > 100 µM

Q: What about the TGI (OVCAR-5 ovarian) of the same compound?
A: > 100 µM

Q: And the TGI (HCT-15 colon)?
A: > 100 µM

Q: And the TGI (OVCAR-4 ovarian)?
A: > 100 µM

Q: And the TGI (786-0 renal)?
A: > 100 µM

Q: And the TGI (IGROV1 ovarian)?
A: > 100 µM

Q: What about the TGI (EKVX NSCLC) of the same compound?
A: > 100 µM

Q: What about the TGI (ACHN renal) of the same compound?
A: > 100 µM

Q: What about the TGI (T-47D breast) of the same compound?
A: > 100 µM

Q: And the TGI (CCRF-CEM leukemia)?
A: > 100 µM

Q: What about the TGI (NCI/ADR-RES ovarian) of the same compound?
A: > 100 µM

Q: What about the TGI (HT29 colon) of the same compound?
A: > 100 µM

Q: And the TGI (MDA-MB-231 breast)?
A: > 100 µM

Q: And the TGI (UO-31 renal)?
A: > 100 µM

Q: What about the TGI (U251 CNS) of the same compound?
A: > 100 µM

Q: And the TGI (KM12 colon)?
A: > 100 µM

Q: What about the TGI (CAKI-1 renal) of the same compound?
A: > 100 µM

Q: And the TGI (DU-145 prostate)?
A: > 100 µM

Q: And the TGI (MDA-MB-435)?
A: > 100 µM

Q: What about the TGI (UACC-257 melanoma) of the same compound?
A: > 100 µM

Q: What about the TGI (HCC-2998 colon) of the same compound?
A: > 100 µM

Q: With `Clc1ccc(Nc2nn3c(CCCCCCCCc4nnc5sc(Nc6ccc(Cl)cc6)nn45)nnc3s2)cc1` as the compound, how does the TGI (OVCAR-8 ovarian) read?
A: > 100 µM

Q: What about the TGI (SN12C renal) of the same compound?
A: > 100 µM

Q: And the TGI (SK-MEL-5 melanoma)?
A: > 100 µM

Q: And the TGI (SF-268 CNS)?
A: > 100 µM

Q: What about the TGI (COLO 205 colon) of the same compound?
A: > 100 µM

Q: And the TGI (PC-3 prostate)?
A: > 100 µM

Q: What about the TGI (A549 NSCLC) of the same compound?
A: > 100 µM

Q: And the TGI (HS 578T breast)?
A: > 100 µM

Q: What about the TGI (TK-10 renal) of the same compound?
A: 96.8 µM

Q: What about the TGI (MOLT-4 leukemia) of the same compound?
A: > 100 µM

Q: What about the TGI (A498 renal) of the same compound?
A: > 100 µM

Q: What about the TGI (NCI-H460 lung) of the same compound?
A: > 100 µM

Q: And the TGI (MDA-N)?
A: > 100 µM

Q: What about the TGI (NCI-H522 lung) of the same compound?
A: > 100 µM

Q: And the TGI (SNB-19 CNS)?
A: 80.4 µM

Q: And the TGI (SK-MEL-2 melanoma)?
A: > 100 µM

Q: What about the TGI (NCI-H226 lung) of the same compound?
A: > 100 µM

Q: What about the TGI (SW-620 colon) of the same compound?
A: > 100 µM

Q: What about the TGI (OVCAR-3 ovarian) of the same compound?
A: > 100 µM

Q: What about the TGI (RPMI-8226 leukemia) of the same compound?
A: > 100 µM

Q: And the TGI (SF-295 CNS)?
A: > 100 µM

Q: And the TGI (UACC-62 melanoma)?
A: > 100 µM

Q: What about the TGI (BT-549 breast) of the same compound?
A: > 100 µM

Q: What about the TGI (MCF7 breast) of the same compound?
A: > 100 µM

Q: And the TGI (NCI-H23 lung)?
A: > 100 µM

Q: And the TGI (LOX IMVI melanoma)?
A: > 100 µM

Q: And the TGI (HOP-92 NSCLC)?
A: > 100 µM

Q: What about the TGI (HOP-62 NSCLC) of the same compound?
A: > 100 µM

Q: And the TGI (HCT-116 colon)?
A: > 100 µM

Q: And the TGI (M14 melanoma)?
A: > 100 µM

Q: What about the TGI (SK-OV-3 ovarian) of the same compound?
A: > 100 µM

Q: What about the TGI (SF-539 CNS) of the same compound?
A: > 100 µM

Q: And the TGI (RXF 393 renal)?
A: > 100 µM

Q: What about the TGI (K-562 leukemia) of the same compound?
A: > 100 µM

Q: And the TGI (SK-MEL-28 melanoma)?
A: > 100 µM

Q: What about the TGI (OVCAR-5 ovarian) of the same compound?
A: > 100 µM

Q: What about the TGI (HCT-15 colon) of the same compound?
A: > 100 µM

Q: What about the TGI (OVCAR-4 ovarian) of the same compound?
A: > 100 µM

Q: What about the TGI (MALME-3M melanoma) of the same compound?
A: > 100 µM

Q: And the TGI (786-0 renal)?
A: > 100 µM

Q: What about the TGI (EKVX NSCLC) of the same compound?
A: > 100 µM

Q: What about the TGI (ACHN renal) of the same compound?
A: > 100 µM

Q: What about the TGI (T-47D breast) of the same compound?
A: > 100 µM

Q: What about the TGI (CCRF-CEM leukemia) of the same compound?
A: > 100 µM

Q: And the TGI (NCI/ADR-RES ovarian)?
A: > 100 µM

Q: What about the TGI (HT29 colon) of the same compound?
A: > 100 µM

Q: And the TGI (MDA-MB-231 breast)?
A: > 100 µM

Q: What about the TGI (UO-31 renal) of the same compound?
A: > 100 µM

Q: And the TGI (U251 CNS)?
A: > 100 µM

Q: What about the TGI (KM12 colon) of the same compound?
A: > 100 µM

Q: And the TGI (CAKI-1 renal)?
A: > 100 µM

Q: And the TGI (DU-145 prostate)?
A: > 100 µM

Q: And the TGI (MDA-MB-435)?
A: > 100 µM

Q: What about the TGI (UACC-257 melanoma) of the same compound?
A: > 100 µM

Q: And the TGI (SNB-75 CNS)?
A: 62.6 µM

Q: What about the TGI (HCC-2998 colon) of the same compound?
A: > 100 µM
